Our source for the IC50 values is patent US9850283B2, “Macrocyclic inhibitors of the PD-1/PD-L1 and CD80(B7-1)/PD-L1 protein/protein interactions” (BRISTOL-MYERS SQUIBB COMPANY, priority 2013, dated 2017).

Like-named read-outs stand apart in the source and are kept apart here. Positions of bridges follow the written chain, without caps; N, C: chain ends. Non-standard residues stand in square brackets, D forms with d. Residues, ends and D or L forms follow the SMILES beside them. ξ: configuration not given here. *: point of attachment. Phe(4-guanidino) = N=C(N)Nc1ccc(C[C@H](N)C(=O)O)cc1; Bta = N[C@@H](Cc1csc2ccccc12)C(=O)O; cisHyp = O=C(O)[C@@H]1C[C@H](O)CN1; Hyp = O=C(O)[C@@H]1C[C@@H](O)CN1; 2Pal = N[C@@H](Cc1ccccn1)C(=O)O; AllylGly = C=CC[C@H](N)C(=O)O; NMeNle = CCCC[C@H](NC)C(=O)O; NMeS = CN[C@@H](CO)C(=O)O; NMeA = CN[C@@H](C)C(=O)O; Dab = NCC[C@H](N)C(=O)O; Dap = NC[C@H](N)C(=O)O; Bn = c1ccc(C*)cc1; ξC = NC(CS)C(=O)O; Sar = CNCC(=O)O Where only a bound is given, the exact number is not on record here.

The target of one test is T1, Human PD-L1/PD-1 (Homo sapiens, UniProt Q9NZQ7).
T1 construct: made in house; host or cells: HEK293T
T1 sequence (Q9NZQ7 with tags, fused parts or gaps): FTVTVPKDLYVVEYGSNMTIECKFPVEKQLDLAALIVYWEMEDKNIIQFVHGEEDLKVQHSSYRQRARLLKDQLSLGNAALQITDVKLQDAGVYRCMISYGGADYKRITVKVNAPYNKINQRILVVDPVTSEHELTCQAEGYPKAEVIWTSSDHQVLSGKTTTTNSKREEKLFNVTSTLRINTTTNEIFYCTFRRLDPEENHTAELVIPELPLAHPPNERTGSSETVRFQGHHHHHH
Kind of test: HTRF PD-1-Ig/PD-L1-His binding assay (human PD-L1). As to conditions: cluster symbol; read-out: HTRF IC50 cluster. In a few lines:
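Readout: time-resolved FRET between Eu cryptate-labeled anti-Ig (1 nM final) and APC-labeled anti-His (20 nM final) antibodies. These detect interaction of Fc-fused PD-1 with His-tagged human PD-L1 in dPBS containing 0.1% BSA and 0.05% Tween-20.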

The target in test [1] is T2, LK35.2-hPD-L1 cells / PE-labeled PD-1-Ig (Homo sapiens, UniProt Q9NZQ7).
T2 construct: expressed in transfected cells; host or cells: LK35.2 mouse B cell line
T2 sequence (Q9NZQ7 19-290): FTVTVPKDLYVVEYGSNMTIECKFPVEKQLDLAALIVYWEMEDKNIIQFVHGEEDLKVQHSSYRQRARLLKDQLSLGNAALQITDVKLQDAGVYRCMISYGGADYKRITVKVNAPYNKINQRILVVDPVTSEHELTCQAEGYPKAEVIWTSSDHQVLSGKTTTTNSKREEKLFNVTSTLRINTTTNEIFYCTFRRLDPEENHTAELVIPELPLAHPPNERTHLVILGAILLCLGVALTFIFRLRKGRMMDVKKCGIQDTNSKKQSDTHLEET
Kind of test: LK35.2-hPD-L1 cell binding high-content screening assay. Conditions: cluster symbol, read-out: CBA IC50 cluster. The class given is cell-based. The gist of the method:
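Compound effect on PD-1/PD-L1 binding is measured by imaging cell-associated phycoerythrin signal. Human PD-1-Ig (PE on Ig tag, 1 nM final) is applied with compound to a murine B cell line overexpressing human PD-L1 for 1 h at 37 °C in serum-containing RPMI.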

[2] abbreviates: cell binding assay, cell line not given.
[3] abbreviates: cell line of CBA not given (LK35.2-hPD-L1 or 293T-hPD-L1).

Take `CCCC[C@H]1C(=O)N(C)[C@@H](CCCC)C(=O)N[C@@H](CN)C(=O)N[C@H](C(=O)NCC(N)=O)CSCC(=O)N[C@@H](Cc2ccc(O)cc2)C(=O)N(C)[C@@H](C)C(=O)N[C@@H](CC(N)=O)C(=O)N2CCC[C@H]2C(=O)N[C@@H](CN)C(=O)N[C@@H](CCC(=O)O)C(=O)N2C[C@H](O)C[C@H]2C(=O)N[C@@H](Cc2c[nH]c3ccccc23)C(=O)N[C@@H](CCN)C(=O)N[C@@H](Cc2c[nH]c3ccccc23)C(=O)N1C` [Example 5060] ({CH2CO}-Y[NMeA]NP[Dap]E[Hyp]W[Dab]W[NMeNle][NMeNle][Dap]CG-NH2; thioether N-14): the results for the IC50 (on Human PD-L1/PD-1; in test [1] (setting [2])) were 0.385 to 6.74 nM and 4.78 to 72.9 nM, respectively.

Regarding `CCCC[C@H]1C(=O)N(C)CC(=O)N[C@@H](CC(=O)O)C(=O)N[C@@H](C(C)C)C(=O)N(C)[C@@H](Cc2ccccc2)C(=O)N[C@@H](Cc2ccc(O)cc2)C(=O)N(C)CC(=O)N[C@@H](Cc2c[nH]c3ccccc23)C(=O)N[C@@H](Cc2ccc(O)cc2)C(=O)N[C@@H](CC2CCCCC2)C(=O)N[C@H](C(=O)NCC(N)=O)CSCC(=O)N[C@@H](Cc2ccccc2)C(=O)N(C)[C@@H](Cc2ccccc2)C(=O)N1C` [Example 3096] (HELM PEPTIDE1{[O=C(C[*:3])[*:2]].F.[meF].[CCCC[C@@H](C(=O)[*:2])N(C)[*:1]].[Sar].D.V.[meF].Y.[Sar].W.Y.[Cha].C.G.[am]}$PEPTIDE1,PEPTIDE1,1:R3-14:R3$$$V2.0), the IC50 at Human PD-L1/PD-1 fell in the range of 6.76 to 30.3 nM; in test [1] (setting [3]) it was 4.78 to 72.9 nM.

Take `CCCC[C@H]1C(=O)N(C)[C@@H](CCCC)C(=O)N[C@@H](CCCNC(=N)N)C(=O)N[C@H](C(=O)NCC(N)=O)CSCC(=O)N[C@@H](Cc2ccc(N=C(N)N)cc2)C(=O)N(C)[C@@H](C)C(=O)N[C@@H](CC(N)=O)C(=O)N2CCC[C@H]2C(=O)N[C@@H](Cc2cnc[nH]2)C(=O)N[C@@H](CC(C)C)C(=O)N2C[C@H](O)C[C@H]2C(=O)N[C@@H](Cc2c[nH]c3ccccc23)C(=O)N[C@@H](CO)C(=O)N[C@@H](Cc2c[nH]c3ccccc23)C(=O)N1C` [Example 7049] ({CH2CO}-[Phe(4-guanidino)][NMeA]NPHL[Hyp]WSW[NMeNle][NMeNle]RCG-NH2; thioether N-14): the IC50 at Human PD-L1/PD-1 was more than 30.5 nM; in test [1] (setting [2]), more than 74.3 nM.

For `CCCC[C@H]1C(=O)N(C)[C@@H](CCCC)C(=O)N[C@@H](CCCNC(=N)N)C(=O)N[C@H](C(=O)NCC(N)=O)CSCC(=O)N[C@@H](Cc2ccc(O)cc2)C(=O)N(C)[C@@H](C)C(=O)N[C@@H](CC(N)=O)C(=O)N2CCC[C@H]2C(=O)N[C@@H](C)C(=O)N[C@@H](CC(C)C)C(=O)N2C[C@@H](O)C[C@H]2C(=O)N[C@@H](Cc2c[nH]c3ccccc23)C(=O)N[C@@H](CO)C(=O)N[C@@H](Cc2c[nH]c3ccccc23)C(=O)N1C` [Example 1142] ({CH2CO}-Y[NMeA]NPAL[cisHyp]WSW[NMeNle][NMeNle]RCG-NH2; thioether N-14), the half-inhibitory concentration (IC50) at Human PD-L1/PD-1 lay within 6.76 to 30.3 nM; in test [1] (setting [3]), 4.78 to 72.9 nM.

Take `CCCC[C@H]1C(=O)N(C)[C@@H](CCCC)C(=O)N[C@@H](CN)C(=O)N[C@H](C(=O)NCC(N)=O)CSCC(=O)N[C@@H](Cc2ccc(O)cc2)C(=O)N(C)[C@@H](C)C(=O)N[C@@H](CC(N)=O)C(=O)N2CCC[C@H]2C(=O)N[C@@H](CN)C(=O)N[C@@H](CC(C)C)C(=O)N2C[C@H](O)C[C@H]2C(=O)N[C@@H](Cc2c[nH]c3ccccc23)C(=O)N[C@@H](CO)C(=O)N[C@@H](Cc2csc3ccccc23)C(=O)N1C` [Example 1161] ({CH2CO}-Y[NMeA]NP[Dap]L[Hyp]WS[Bta][NMeNle][NMeNle][Dap]CG-NH2; thioether N-14): the IC50 on Human PD-L1/PD-1 is 0.385 to 6.74 nM; in test [1] (setting [3]) it was 0.158 to 4.71 nM.

For the compound `CC(C)C[C@@H]1NC(=O)[C@H](Cc2cnc[nH]2)NC(=O)[C@@H]2CCCN2C(=O)[C@H](CC(N)=O)NC(=O)[C@H](C)N(C)C(=O)[C@H](Cc2ccccc2)NC(=O)CSC[C@@H](C(=O)NCC(N)=O)NC(=O)[C@H](CCCNC(=N)N)NC(=O)[C@H](COCc2ccccc2)N(C)C(=O)[C@H](C)N(C)C(=O)[C@H](Cc2c[nH]c3ccccc23)NC(=O)[C@H](CO)NC(=O)[C@H](Cc2c[nH]c3ccccc23)NC(=O)CN(C)C1=O` [Example 6015] ({CH2CO}-F[NMeA]NPHL[Sar]WSW[NMeA][NMeS](Bn)RCG-NH2; thioether N-14), the half-maximal inhibitory concentration (IC50) on Human PD-L1/PD-1 is more than 30.5 nM; in test [1] (setting [2]), 4.78 to 72.9 nM.

Consider `CCCC[C@H]1C(=O)N(C)[C@@H](CCCC)C(=O)N[C@@H](C)C(=O)N[C@H](C(=O)NCC(N)=O)CSCC(=O)N[C@@H](Cc2ccc(O)cc2)C(=O)N(C)[C@@H](C)C(=O)N[C@@H](CC(=O)O)C(=O)N2CCC[C@H]2C(=O)N[C@@H](CCN)C(=O)N[C@@H](CC(C)C)C(=O)N2C[C@H](O)C[C@H]2C(=O)N[C@@H](Cc2c[nH]c3ccccc23)C(=O)N[C@@H](CO)C(=O)N[C@@H](Cc2c[nH]c3ccccc23)C(=O)N1C` [Example 1158] ({CH2CO}-Y[NMeA]DP[Dab]L[Hyp]WSW[NMeNle][NMeNle]ACG-NH2; thioether N-14), for which the IC50 at Human PD-L1/PD-1 was 0.385 to 6.74 nM; in test [1] (setting [3]), 0.158 to 4.71 nM.

For `CCCC[C@H]1C(=O)N(C)[C@@H](CCCC)C(=O)N[C@@H](CCCNC(=N)N)C(=O)NC(C(=O)NCC(N)=O)CSCC(=O)N[C@@H](Cc2ccc(O)cc2)C(=O)N(C)[C@@H](CO)C(=O)N[C@@H](CC(N)=O)C(=O)N2CCC[C@H]2C(=O)N[C@@H](Cc2cnc[nH]2)C(=O)N[C@@H](CC(C)C)C(=O)N2C[C@H](O)C[C@H]2C(=O)N[C@@H](Cc2c[nH]c3ccccc23)C(=O)N[C@@H](CO)C(=O)N[C@@H](Cc2csc3ccccc23)C(=O)N1C` (some centres unmarked) [Example 9039] ({CH2CO}-Y[NMeS]NPHL[Hyp]WS[Bta][NMeNle][NMeNle]R[ξC]G-NH2; thioether N-14), the figures for the IC50 (on Human PD-L1/PD-1; in test [1] (setting [2])) were 0.385 to 6.74 nM and 0.158 to 4.71 nM, respectively.

On to `CCCC[C@H]1C(=O)N(C)[C@@H](CCCC)C(=O)N[C@@H](CCCNC(=N)N)C(=O)N[C@H](C(=O)NCC(N)=O)CSCC(=O)N[C@@H](Cc2ccc(O)cc2)C(=O)N(C)[C@@H](C)C(=O)N[C@@H](CCN)C(=O)N2CCC[C@H]2C(=O)N[C@@H](Cc2c[nH]cn2)C(=O)N[C@@H](CC(=O)O)C(=O)N2C[C@H](O)C[C@H]2C(=O)N[C@@H](Cc2c[nH]c3ccccc23)C(=O)N[C@@H](CO)C(=O)N[C@@H](Cc2c[nH]c3ccccc23)C(=O)N1C` [Example 5132] ({CH2CO}-Y[NMeA][Dab]PHD[Hyp]WSW[NMeNle][NMeNle]RCG-NH2; thioether N-14), for which the IC50 fell in the range of 6.76 to 30.3 nM at Human PD-L1/PD-1 and 4.78 to 72.9 nM in test [1] (setting [2]).

Regarding `C=CC[C@@H]1NC(=O)[C@H](Cc2c[nH]c3ccccc23)NC(=O)[C@@H]2CCCN2C(=O)[C@H](CC(C)C)NC(=O)[C@H](Cc2c[nH]cn2)NC(=O)[C@@H]2CCCN2C(=O)[C@H](CC(N)=O)NC(=O)[C@H](C)N(C)C(=O)[C@H](Cc2ccccn2)NC(=O)CSC[C@@H](C(=O)NCC(N)=O)NC(=O)[C@H](CC=C)NC(=O)[C@H](CCCC)N(C)C(=O)[C@H](CCCC)N(C)C(=O)[C@H](Cc2c[nH]c3ccccc23)NC1=O` [Example 7023] ({CH2CO}-[2Pal][NMeA]NPHLPW[AllylGly]W[NMeNle][NMeNle][AllylGly]CG-NH2; thioether N-14), the IC50 at Human PD-L1/PD-1 is more than 30.5 nM; in test [1] (setting [2]), more than 74.3 nM.
